Source: the supplement of paper PMC11281043

Key:
Settings in all cases: exposure: 6-8 hpf to 5 dpf, scored at 6 dpf
[1] = system: Danio rerio embryo/larva; experiment: max % larvae with edema across tested concentrations; higher = more toxic; extreme values may be limits of the assay
[2] = system: Danio rerio embryo/larva; experiment: max % larvae with blood pooling across tested concentrations; higher = more toxic; extreme values may be limits of the assay
[3] = system: Danio rerio embryo/larva; experiment: max % larvae with pigmentation defects across tested concentrations; higher = more toxic
[4] = system: Danio rerio embryo/larva; experiment: max % larvae with craniofacial defects across tested concentrations; higher = more toxic; extreme values may be limits of the assay
[5] = system: Danio rerio embryo/larva; experiment: max % larvae with spinal defects across tested concentrations; higher = more toxic; extreme values may be limits of the assay
[6] = system: Danio rerio embryo/larva; experiment: max % larvae with tail defects across tested concentrations; higher = more toxic; extreme values may be limits of the assay
[7] = system: Danio rerio embryo/larva; experiment: max % larvae with uninflated swim bladder across tested concentrations; higher = more toxic; extreme values may be limits of the assay
[8] = system: Danio rerio embryo/larva; experiment: max % larvae with abnormal position across tested concentrations; higher = more toxic; extreme values may be limits of the assay
[9] = system: Danio rerio embryo/larva; experiment: max % larvae unhatched across tested concentrations; max tested concentration (log10 uM): 2; higher = more toxic
[10] = system: Danio rerio embryo/larva; experiment: max % larvae with any abnormality across tested concentrations; max tested concentration (log10 uM): 2; higher = more toxic; extreme values may be limits of the assay

| Structure (SMILES) | max % larvae [1] [%] | max % larvae [2] [%] | max % larvae [3] [%] | max % larvae [4] [%] | max % larvae [5] [%] | max % larvae [6] [%] | max % larvae [7] [%] | max % larvae [8] [%] | max % larvae unhatched across tested concentrations [9] [%] | max % larvae [10] [%] |
| --- | --- | --- | --- | --- | --- | --- | --- | --- | --- | --- |
| OCC(F)(F)C(F)(F)C(F)(F)C(F)(F)C(F)(F)C(F)(F)F [6:1 Fluorotelomer alcohol] (max tested concentration (log10 uM): 2) | 25 | 16.7 | 0 | 25 | 12.5 | 12.5 | 25 | 4.17 |  |  |
| O=S(=O)(O)CCC(F)(F)C(F)(F)C(F)(F)C(F)(F)C(F)(F)C(F)(F)F [6:2 Fluorotelomer sulfonic acid] (max tested concentration (log10 uM): 2) | 4.17 | 0 | 0 | 0 | 0 | 0 | 0 | 4.17 |  |  |
| FC(F)C(F)(F)COCC1CO1 (configuration not stated) [((2,2,3,3-Tetrafluoropropoxy)methyl)oxirane] (max tested concentration (log10 uM): 2) | 31.2 | 0 | 0 | 16.7 | 0 | 0 | 91.7 | 8.33 |  |  |
| C=C(C)C(=O)OCC(F)(F)C(F)(F)C(F)(F)F [(Perfluoropropyl)methyl methacrylate] (max tested concentration (log10 uM): 2) | 8.33 | 0 | 4.17 | 8.33 | 0 | 4.17 | 8.33 | 4.17 |  |  |
| O=C(O)C(F)(F)C(F)(F)C(F)(F)C(F)(F)C(F)(F)C(F)(F)C(F)(F)F [Ammonium perfluorooctanoate] |  |  |  |  |  |  |  |  | 0 | 16.7 |
| O=C(O)C(F)(F)C(F)(F)C(F)(F)C(F)(F)C(F)(F)C(F)(F)C(F)(F)F [Ammonium perfluorooctanoate] (max tested concentration (log10 uM): 2) | 0 | 0 | 0 | 0 | 0 | 0 | 9.09 | 0 |  |  |
| FC(F)(F)C(F)(F)CNCC(F)(F)C(F)(F)F [Bis(1H,1H-perfluoropropyl)amine] (max tested concentration (log10 uM): 2) |  | 0 | 0 | 0 | 0 | 0 | 16.7 | 0 |  |  |
| NC(=O)C(F)(F)C(F)(F)C(F)(F)F [Heptafluorobutyramide] (max tested concentration (log10 uM): 2) | 8.33 | 0 | 0 | 0 | 0 | 0 | 10 | 0 |  |  |
| O=S(=O)(Cl)C(F)(F)C(F)(F)C(F)(F)C(F)(F)C(F)(F)C(F)(F)C(F)(F)C(F)(F)F [Perfluoro-1-octanesulfonyl chloride] (max tested concentration (log10 uM): 2) | 100 | 0 | 0 | 100 | 25 | 100 | 100 | 25 |  |  |
| O=C(O)C(F)(F)C(F)(F)OC(F)(F)F [Perfluoro-3-methoxypropanoic acid] (max tested concentration (log10 uM): 2) | 8.33 | 16.7 | 0 | 0 | 0 | 0 | 0 | 0 |  |  |
| O=C(O)C(F)(F)C(F)(F)C(=O)O [Perfluorobutanedioic acid] (max tested concentration (log10 uM): 2) | 8.33 | 8.33 | 0 | 0 | 0 | 0 | 0 | 4.17 |  |  |
| O=S(=O)(O)C(F)(F)C(F)(F)C(F)(F)C(F)(F)C(F)(F)C(F)(F)C(F)(F)F [Perfluoroheptanesulfonic acid] (max tested concentration (log10 uM): 1.90309) | 91.7 | 50 | 16.7 | 100 | 8.33 | 37.5 | 100 | 50 |  |  |
| O=C(O)C(F)(F)C(F)(F)C(F)(F)C(F)(F)C(F)(F)C(F)(F)F [Perfluoroheptanoic acid] |  |  |  |  |  |  |  |  | 0 | 16.7 |
| O=S(=O)(O)C(F)(F)C(F)(F)C(F)(F)C(F)(F)C(F)(F)C(F)(F)F [Perfluorohexanesulfonic acid] (max tested concentration (log10 uM): 2) | 31.2 | 25 | 0 | 50 | 3.12 | 0 | 100 | 31.2 |  |  |
| O=C(O)C(F)(F)C(F)(F)C(F)(F)C(F)(F)C(F)(F)C(F)(F)C(F)(F)F [Perfluorooctanoic acid] |  |  |  |  |  |  |  |  | 0 | 16.7 |
| O=S(=O)(O)C(F)(F)C(F)(F)C(F)(F)C(F)(F)C(F)(F)C(F)(F)C(F)(F)C(F)(F)F [Potassium perfluorooctanesulfonate] (max tested concentration (log10 uM): 2) | 100 | 33.3 | 0 | 100 | 50 | 100 | 100 | 50 |  |  |
| O=C(O)C(F)(F)C(F)(F)C(F)(F)C(F)(F)C(F)(F)C(F)(F)C(F)(F)F [Potassium perfluorooctanoate] (max tested concentration (log10 uM): 2) | 9.09 | 9.09 | 0 | 9.09 | 0 | 2.27 | 9.09 | 2.27 |  |  |
